Assay results from patent US9676754B2, “Triazolone compounds and uses thereof” (Inception 2, Inc., priority 2012, dated 2017).
pIC50: −log10 of the molar value.

How the values were obtained:
Estrogen Receptor β = molecular target: T1, Estrogen Receptor β (Homo sapiens, UniProt Q92731); test: Target selectivity counterscreen, Estrogen Receptor β reporter assay; format: cell-based; conditions: receptor agonist at ~EC80
T1 construct: host or cells: engineered reporter cells of the kit
Experimental: (§1) Target Selectivity Assays
(§2) To determine species selectivity, a Mouse PPARα Reporter Assay System was used (Indigo Biosciences, Cat. #M00111). Activity of test compounds to antagonize or agonize other isoforms of human PPAR, for example β/δ and γ, were assessed using the corresponding kits from Indigo Biosciences (Cat. #IB00121 and #IB00101, respectively). In addition to PPAR activity, compounds were also screened for activity against other nuclear hormone receptors including Estrogen Receptor β, Glucocorticoid Receptor and Thyroid Receptor β using commercially available kits (Indigo Biosciences, Cat. #IB00411, IB00201 and IB01101, respectively). Each assay system from Indigo Biosciences uses technology analogous to the human PPARα kit, with the variance being that the cells used for each assay were engineered to over-express the receptor of interest. In addition, the appropriate receptor agonist (included with each kit) was used at ˜EC80 for assays in which antagonist potency was being assessed.

Glucocorticoid Receptor = molecular target: T2, Glucocorticoid Receptor (Homo sapiens, UniProt P04150); test: Target selectivity counterscreen, Glucocorticoid Receptor reporter assay; format: cell-based; conditions: receptor agonist at ~EC80
T2 construct: host or cells: engineered reporter cells of the kit
T2 sequence (P04150 1-777): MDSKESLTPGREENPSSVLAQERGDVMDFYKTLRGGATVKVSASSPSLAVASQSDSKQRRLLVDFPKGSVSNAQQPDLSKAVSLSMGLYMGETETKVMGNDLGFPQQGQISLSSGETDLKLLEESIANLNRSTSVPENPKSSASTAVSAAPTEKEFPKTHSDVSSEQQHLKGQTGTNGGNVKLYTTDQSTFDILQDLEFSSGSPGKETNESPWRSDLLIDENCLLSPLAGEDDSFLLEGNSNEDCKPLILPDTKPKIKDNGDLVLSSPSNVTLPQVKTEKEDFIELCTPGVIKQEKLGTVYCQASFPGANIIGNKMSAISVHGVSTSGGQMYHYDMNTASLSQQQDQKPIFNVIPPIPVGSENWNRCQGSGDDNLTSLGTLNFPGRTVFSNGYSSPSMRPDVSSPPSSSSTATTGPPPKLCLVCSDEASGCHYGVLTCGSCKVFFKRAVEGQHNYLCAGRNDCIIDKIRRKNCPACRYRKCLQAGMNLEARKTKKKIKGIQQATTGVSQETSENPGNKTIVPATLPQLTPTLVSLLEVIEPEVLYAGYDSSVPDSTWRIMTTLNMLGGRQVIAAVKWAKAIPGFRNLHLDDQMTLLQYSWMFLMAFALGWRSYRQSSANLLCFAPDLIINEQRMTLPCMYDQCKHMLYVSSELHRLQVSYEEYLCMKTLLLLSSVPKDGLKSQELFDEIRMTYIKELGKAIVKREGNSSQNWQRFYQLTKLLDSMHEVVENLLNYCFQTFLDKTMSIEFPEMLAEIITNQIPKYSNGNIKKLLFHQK
Experimental: as §1, §2

Thyroid Receptor β = molecular target: T3, Thyroid Receptor β (Homo sapiens, UniProt P10828); test: Target selectivity counterscreen, Thyroid Receptor β reporter assay; format: cell-based; conditions: receptor agonist at ~EC80
T3 construct: host or cells: engineered reporter cells of the kit
T3 sequence (P10828 1-461): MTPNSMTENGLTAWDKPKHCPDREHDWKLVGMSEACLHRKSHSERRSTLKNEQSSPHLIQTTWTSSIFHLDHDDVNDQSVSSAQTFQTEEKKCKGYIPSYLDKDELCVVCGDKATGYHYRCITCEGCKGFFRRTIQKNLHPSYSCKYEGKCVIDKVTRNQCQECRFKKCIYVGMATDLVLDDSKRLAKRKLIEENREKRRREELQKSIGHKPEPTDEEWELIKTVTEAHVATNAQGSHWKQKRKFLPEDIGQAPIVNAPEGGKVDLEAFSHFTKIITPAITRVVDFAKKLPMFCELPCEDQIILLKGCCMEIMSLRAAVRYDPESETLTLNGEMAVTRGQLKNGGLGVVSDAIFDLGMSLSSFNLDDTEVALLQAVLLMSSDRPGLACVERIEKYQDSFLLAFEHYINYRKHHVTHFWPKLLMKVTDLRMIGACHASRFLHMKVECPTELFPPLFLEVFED
Experimental: as §1, §2

B16F10 melanoma cells = test: In vivo cancer model: B16F10 model of pulmonary metastasis; design: species or system C57BL/6 mice; conditions: oral doses 0.3, 3 and 30 mg/kg daily, day 21, FIG. 1
Experimental: In Vivo Cancer Model: B16F10 Model of Pulmonary Metastasis
B16F10 cells were cultured in standard growth media, harvested when approximately 50% confluent and injected into C57BL/6 mice via the tail vein (50,000 cells per mouse in 200 μL). Mice were treated daily with test compound. On day 21, mice were euthanized. Lungs were harvested and placed into Fekete's solution overnight to facilitate visualization of the tumors. Black nodules were enumerated.
Statistics were performed by ANOVA with Dunnett's Multiple Comparison Test post-hoc to determine statistical differences from vehicle treatment group. * denotes P<0.05, while *** denotes P<0.001.

PPAR beta/delta = molecular target: T4, PPAR beta/delta (Homo sapiens, UniProt Q03181); test: Target selectivity counterscreen, PPAR β/δ reporter assay; format: cell-based; conditions: receptor agonist at ~EC80
T4 construct: host or cells: engineered reporter cells of the kit (analogous to the human PPARα kit)
T4 sequence (Q03181 1-441): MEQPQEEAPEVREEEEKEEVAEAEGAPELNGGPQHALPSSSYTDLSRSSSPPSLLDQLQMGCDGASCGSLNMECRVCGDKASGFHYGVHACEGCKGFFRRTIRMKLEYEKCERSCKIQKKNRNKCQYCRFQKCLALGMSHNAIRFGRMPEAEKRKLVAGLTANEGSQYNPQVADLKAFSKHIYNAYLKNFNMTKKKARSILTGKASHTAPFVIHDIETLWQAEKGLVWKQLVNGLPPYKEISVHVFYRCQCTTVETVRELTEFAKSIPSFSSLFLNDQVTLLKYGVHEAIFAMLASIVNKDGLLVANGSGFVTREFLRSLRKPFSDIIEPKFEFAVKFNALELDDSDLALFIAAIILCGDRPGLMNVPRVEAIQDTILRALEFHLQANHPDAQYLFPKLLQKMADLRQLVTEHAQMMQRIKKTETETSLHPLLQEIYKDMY
Experimental: as §1, §2

T1 sequence (Q92731 whole entry): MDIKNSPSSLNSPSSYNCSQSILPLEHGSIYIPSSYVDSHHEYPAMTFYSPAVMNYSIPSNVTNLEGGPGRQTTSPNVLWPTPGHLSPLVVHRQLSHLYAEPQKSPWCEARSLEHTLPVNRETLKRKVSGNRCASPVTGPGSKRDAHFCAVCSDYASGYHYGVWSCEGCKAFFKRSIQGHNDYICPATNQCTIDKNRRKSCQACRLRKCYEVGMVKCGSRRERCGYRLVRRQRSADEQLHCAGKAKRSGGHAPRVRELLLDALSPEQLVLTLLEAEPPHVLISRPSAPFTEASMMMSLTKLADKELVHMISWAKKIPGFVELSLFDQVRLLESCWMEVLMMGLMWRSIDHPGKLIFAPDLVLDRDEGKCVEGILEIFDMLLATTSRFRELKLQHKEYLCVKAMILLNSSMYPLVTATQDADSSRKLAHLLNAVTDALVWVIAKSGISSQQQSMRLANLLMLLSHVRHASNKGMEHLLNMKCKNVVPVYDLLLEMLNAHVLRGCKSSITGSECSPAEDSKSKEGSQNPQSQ

pIC50 (Estrogen Receptor β): 4.71 | pIC50 (Glucocorticoid Receptor): 4.74 | pIC50 (Thyroid Receptor β): 4.51 | pIC50 (PPAR beta/delta): 4.88
SMILES: CCOc1ccc(-c2cccc(CCCc3nn(Cc4ccc(C(C)(C)C)cc4)c(=O)n3CC)c2)cc1CC(=O)O [Example 6, 2-(3′-(3-(1-(4-(tert-Butyl)benzyl)-4-ethyl-5-oxo-4,5-dihydro-1H-1,2,4-triazol-3-yl)propyl)-4-ethoxy-[1,1′-biphenyl]-3-yl)acetic acid]
metastasis of B16F10 melanoma cells to the lung (black nodules enumerated) (B16F10 melanoma cells): inhibition of metastasis
